Assay results as given in US6686352B2, “Substituted imidazo [1,5-a] pyrimido [5,4-d] [1] benzazepine derivatives” (Hoffmann-La Roche Inc., priority 2001, dated 2004).
pKi: −log10 of the molar value.

Key:
[1] = target: T1, GABA A receptor α5β3γ2 (α5 subunit) (Rattus norvegicus, UniProt P18508+P19969); assay: [3H]flumazenil ([3H]Ro 15-1788) competition binding assay, membranes of SF9 cells expressing rat GABA A receptors; conditions: displacement of [3H]Ro 15-1788 (0.5 nM for α5), 1 hour at 4° C., means of two determinations; especially preferred compounds
T1 construct: expressed in transfected cells; host or cells: SF9 insect cells (membrane preparation)
Procedure: The affinity of compounds at GABA A receptor subtypes was measured by competition for [^3H]flumazenil ([^3H]Ro 15-1788) (85 Ci/mmol; Amersham) binding to SF9 cells expressing rat receptors of composition α1β3γ2, α2β3γ2, α3β3γ2 and α5β3γ2.
Cell pellets were suspended in Krebs-tris buffer (4.8 mM KCl, 1.2 mM CaCl2, 1.2 mM MgCl2, 120 mM NaCl, 15 mM Tris; pH 7.5; binding assay buffer), homogenized by polytron for ca. 15 sec on ice and centrifuged in UZ for 30 min at 4° C. (100000 g; rotor: TFT 4594=[…]). The cell pellets were re-suspended in Krebs-tris buffer and homogenized by polytron for ca. 15 sec on ice. Aliquots of 1 ml were prepared, protein was measured (Bradford method) and the resulting membrane aliquots were stored at −70° C.
Radioligand binding assays were carried out in a volume of 200 μL (96-well plates) which contained 100 μL of cells, [^3H]Ro 15-1788 at a concentration of 1 nM for (α1, α2, α3 subunits and 0.5 nM for α5 subunits and the test compound in the range of 10^−10−3×10^−6 M. Nonspecific binding was defined by 10^−5 M diazepam and typically represented less than 5% of the total binding. Assays were incubated to equilibrium for 1 hour at 4° C. and harvested onto GF/C uni-filters (Packard) by filtration using a Packard harvester and washing with ice-cold wash buffer (50 mM Tris; pH 7.5). After drying, filter-retained radioactivity was detected by liquid scintillation counting. Ki values were calculated using Excel-Fit (Microsoft) and are the means of two determinations.

Compound	melting point [°C]	pKi [1]
CCOC(=O)c1ncnc2c1Cc1cnc(Cc3c[nH]c4ccccc34)n1-c1ccccc1-2	120	–
Cc1ncc2n1-c1ccccc1-c1ncnc(C(=O)O)c1C2	285 to 287	–
CCOC(=O)c1ncnc2c1Cc1cnc(Cc3c[nH]c4ccccc34)n1-c1cc(C)c(C)cc1-2	135	–
CCOC(=O)c1ncnc2c1Cc1cnc(Cc3ccc(OC)cc3)n1-c1cc(Cl)ccc1-2	192	–
Cc1ncc2n1-c1ccccc1-c1ncnc(-c3nc(C4CC4)no3)c1C2	216 to 218	–
6-(1-Methylethyl)-9H-imidazo [1,5-a]pyrimido[5,4-d][1]benzazepine-10-carboxylic Acid Ethyl Ester [Example 3]	–	8.05
CCOC(=O)c1ncnc2c1Cc1cnc(C3CC3)n1-c1cc(C)ccc1-2	250	–
9H-Imidazo[1,5-a]pyrimido[5,4-d][1]benzazepine-10-carboxylic Acid Ethyl Ester [Example 1]	–	8.43
CCOC(=O)c1ncnc2c1Cc1cnc(Cc3ccc(OC)cc3)n1-c1cc(C)c(C)cc1-2	150	–
3-Fluoro-6-propyl-9H-imidazo[1,5-a]pyrimido[5,4-d][1]benzazepine-10-carboxylic Acid Ethyl Ester [Example 9]	–	8.10
CCOC(=O)c1ncnc2c1Cc1cnc(Cc3ccc(OC)cc3)n1-c1cc(F)ccc1-2	185	–
CCOC(=O)c1ncnc2c1Cc1cnc(C(C)C)n1-c1cc(Cl)ccc1-2	192	–
3-Fluoro-6-methyl-9H-imidazo[1,5-a]pyrimido[5,4-d][1]benzazepine-10-carboxylic Acid Ethyl Ester [Example 8]	–	8.34
CCOC(=O)c1ncnc2c1Cc1cnc(C(C)(C)C)n1-c1cc(F)ccc1-2	233	–
CCOC(=O)c1ncnc2c1Cc1cnc(C)n1-c1cc(C)c(C)cc1-2	210	–
CCOC(=O)c1ncnc2c1Cc1cncn1-c1cc(Br)ccc1-2	210	–
CCOC(=O)c1ncnc2c1Cc1cnc(C)n1-c1cc(C)ccc1-2	200	–

Compound	melting point [°C]	pKi [1]
6-Cyclopropyl-3-fluoro-9H-imidazo[1,5-a]pyrimido[5,4-d][1]benzazepine-10-carboxylic Acid Ethyl Ester [Example 11]	–	8.11
6-Propyl-9H-imidazo[1,5-a]pyrimido[5,4-d][1]benzazepine-10-carboxylic Acid Ethyl Ester [Example 2]	–	8.26
6-Methyl-9H-imidazo[1,5-a]pyrimido[5,4-d][1]benzazepine-10-carboxylic Acid Ethyl Ester [Example 29]	–	8.42
CCOC(=O)c1ncnc2c1Cc1cnc(C(C)(C)C)n1-c1cc(Cl)ccc1-2	180	–
CCOC(=O)c1ncnc2c1Cc1cnc(-c3ccccc3)n1-c1ccccc1-2	244 to 246	–
3-Bromo-6-methyl-9H-imidazo[1,5-a]pyrimido[5,4-d][1]benzazepine-10-carboxylic Acid Ethyl Ester [Example 22]	–	7.90
6-[(4-Methoxyphenyl)Methyl]-9H-imidazo[1,5-a]pyrimido[5,4-d][1]benzazepine-10-carboxylic Acid Ethyl Ester [Example 6]	–	7.86
CCCc1ncc2n1-c1cc(C)c(C)cc1-c1ncnc(C(=O)OCC)c1C2	213	–
CCOC(=O)c1ncnc2c1Cc1cnc(C3CC3)n1-c1cc(Br)ccc1-2	230	–
CCOC(=O)c1ncnc2c1Cc1cnc(Cc3c[nH]c4ccccc34)n1-c1cc(Cl)ccc1-2	120	–
6-Cyclopropyl-9H-imidazo[1,5-a]pyrimido[5,4-d][1]benzazepine-10-carboxylic Acid Ethyl Ester [Example 4]	–	8.12
CCCc1ncc2n1-c1cc(C)ccc1-c1ncnc(C(=O)OCC)c1C2	250	–
CCOC(=O)c1ncnc2c1Cc1cnc(C(C)(C)C)n1-c1ccccc1-2	250	–
3-Fluoro-6-(1-methylethyl)-9H-imidazo[1,5-a]pyrimido[5,4-d][1]benzazepine-10-carboxylic Acid Ethyl Ester [Example 10]	–	7.95
CCOC(=O)c1ncnc2c1Cc1cnc(Cc3c[nH]c4ccccc34)n1-c1cc(F)ccc1-2	230	–
CCOC(=O)c1ncnc2c1Cc1cnc(Cc3ccc(OC)cc3)n1-c1cc(Br)ccc1-2	180	–
CCOC(=O)c1ncnc2c1Cc1cnc(C3CC3)n1-c1cc(Cl)ccc1-2	230	–
